Source: patent publication US10010541B2, “Modulation of tissue transglutaminase activation in disease” (The Board of Trustees of the Leland Stanford Junior …, priority 2014, dated 2018)

Tests used:
TG1 = target: T1, TG1 (Homo sapiens, UniProt P22735); assay: glutamate dehydrogenase-coupled deamidation assay, substrate Cbz-Gln-Ser; format: biochemical; conditions: irreversible inhibition model, full progress curves
T1 sequence (P22735 1-817): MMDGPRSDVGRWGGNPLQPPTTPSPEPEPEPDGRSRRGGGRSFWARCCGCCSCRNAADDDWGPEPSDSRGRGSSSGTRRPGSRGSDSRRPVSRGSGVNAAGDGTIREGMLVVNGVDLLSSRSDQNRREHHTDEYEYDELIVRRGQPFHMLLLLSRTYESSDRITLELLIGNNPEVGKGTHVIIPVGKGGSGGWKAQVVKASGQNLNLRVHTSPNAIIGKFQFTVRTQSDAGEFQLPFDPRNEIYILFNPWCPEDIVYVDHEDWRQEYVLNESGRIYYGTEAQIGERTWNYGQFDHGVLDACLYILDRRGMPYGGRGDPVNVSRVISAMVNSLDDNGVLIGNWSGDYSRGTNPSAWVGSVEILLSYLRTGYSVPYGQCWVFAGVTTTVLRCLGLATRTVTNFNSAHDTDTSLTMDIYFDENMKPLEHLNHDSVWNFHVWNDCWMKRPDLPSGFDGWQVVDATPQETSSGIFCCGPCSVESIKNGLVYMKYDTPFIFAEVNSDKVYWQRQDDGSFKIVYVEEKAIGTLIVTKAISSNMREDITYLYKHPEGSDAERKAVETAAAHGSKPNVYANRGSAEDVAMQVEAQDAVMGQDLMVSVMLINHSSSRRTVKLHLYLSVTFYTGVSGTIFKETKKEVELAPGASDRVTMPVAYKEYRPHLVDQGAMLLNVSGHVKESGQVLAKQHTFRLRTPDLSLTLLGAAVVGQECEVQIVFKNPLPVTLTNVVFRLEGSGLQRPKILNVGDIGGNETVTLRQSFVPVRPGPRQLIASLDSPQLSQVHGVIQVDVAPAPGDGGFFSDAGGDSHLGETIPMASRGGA

TG2 = target: T2, TG2 (Homo sapiens, UniProt P21980); assay: glutamate dehydrogenase-coupled deamidation assay, substrate Cbz-Gln-Gly; format: biochemical; conditions: irreversible inhibition model, full progress curves
T2 sequence (P21980 1-687): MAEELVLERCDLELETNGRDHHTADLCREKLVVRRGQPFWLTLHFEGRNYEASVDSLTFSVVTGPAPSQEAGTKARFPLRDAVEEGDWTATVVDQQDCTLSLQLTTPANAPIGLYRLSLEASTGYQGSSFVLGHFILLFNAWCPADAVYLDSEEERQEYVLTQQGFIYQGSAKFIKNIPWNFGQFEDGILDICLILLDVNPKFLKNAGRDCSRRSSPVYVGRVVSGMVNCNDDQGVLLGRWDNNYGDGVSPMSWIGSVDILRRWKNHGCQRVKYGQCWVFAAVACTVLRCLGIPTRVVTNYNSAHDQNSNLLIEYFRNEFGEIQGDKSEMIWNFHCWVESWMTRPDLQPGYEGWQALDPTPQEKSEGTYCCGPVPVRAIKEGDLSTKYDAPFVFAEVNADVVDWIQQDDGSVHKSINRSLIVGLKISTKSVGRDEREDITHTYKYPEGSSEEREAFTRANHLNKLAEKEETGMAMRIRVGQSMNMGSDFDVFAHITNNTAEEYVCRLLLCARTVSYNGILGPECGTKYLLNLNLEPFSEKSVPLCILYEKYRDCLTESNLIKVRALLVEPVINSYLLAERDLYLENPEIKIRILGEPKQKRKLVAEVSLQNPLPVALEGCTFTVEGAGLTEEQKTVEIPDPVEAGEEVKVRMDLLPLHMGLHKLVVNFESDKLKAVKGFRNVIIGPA

Row | kinh/Ki TG1 (TG1) | kinh/Ki TG2 (TG2) | Compound
1 | 1100 M⁻¹ s⁻¹ | 810 M⁻¹ s⁻¹ | O=C(NC[C@@H]1CC(Br)=NO1)[C@@H]1C[C@@H](c2ccccc2)CN1C(=O)OCc1cnc2ccccc2c1 [Compound 8, (2S,4S)-quinolin-3-ylmethyl 2-((((S)-3-bromo-4,5-dihydroisoxazol-5-yl)methyl)carbamoyl)-4-phenylpyrrolidine-1-carboxylate]
2 | 452 M⁻¹ s⁻¹ | 618 M⁻¹ s⁻¹ | O=C(N[C@@H]1C[C@@H](C(=O)NC[C@@H]2CC(Br)=NO2)N(C(=O)OCc2cnc3ccccc3c2)C1)c1ccccc1O [Compound 2, (2S,4R)-quinolin-3-ylmethyl 2-((((S)-3-bromo-4,5-dihydroisoxazol-5-yl)methyl)carbamoyl)-4-(2-hydroxybenzamido)pyrrolidine-1-carboxylate]
3 | 96.7 M⁻¹ s⁻¹ | 230 M⁻¹ s⁻¹ | O=C(NC[C@@H]1CC(Br)=NO1)[C@@H]1C[C@@H](NC(=O)C2(C(=O)O)CCC2)CN1C(=O)OCc1cnc2ccccc2c1 [Compound 7, 1-(((3R,5S)-5-((((S)-3-bromo-4,5-dihydroisoxazol-5-yl)methyl)carbamoyl)-1-((quinolin-3-ylmethoxy)carbonyl)pyrrolidin-3-yl)carbamoyl)cyclobutanecarboxylic acid]
4 | 1510 M⁻¹ s⁻¹ | 1520 M⁻¹ s⁻¹ | O=C(NC[C@@H]1CC(Br)=NO1)[C@@H]1C[C@@H](c2ccc(O)cc2)CN1C(=O)OCc1cnc2ccccc2c1 [Compound 12, (2S,4S)-quinolin-3-ylmethyl 2-((((S)-3-bromo-4,5-dihydroisoxazol-5-yl)methyl)carbamoyl)-4-(4-hydroxyphenyl)pyrrolidine-1-carboxylate]
5 | 410 M⁻¹ s⁻¹ | 430 M⁻¹ s⁻¹ | O=C(N[C@@H]1C[C@@H](C(=O)NC[C@@H]2CC(Br)=NO2)N(C(=O)OCc2cnc3ccccc3c2)C1)c1ccccc1 [Compound 1, (2S,4R)-quinolin-3-ylmethyl 4-benzamido-2-((((S)-3-bromo-4,5-dihydroisoxazol-5-yl)methyl)carbamoyl)pyrrolidine-1-carboxylate]
6 | 257 M⁻¹ s⁻¹ | 200 M⁻¹ s⁻¹ | O=C(NC[C@@H]1CC(Br)=NO1)[C@@H]1C[C@@H](c2ccc(Cl)cc2)CN1C(=O)OCc1cnc2ccccc2c1 [Compound 14, (2S,4S)-quinolin-3-ylmethyl 2-((((S)-3-bromo-4,5-dihydroisoxazol-5-yl)methyl)carbamoyl)-4-(4-chlorophenyl)pyrrolidine-1-carboxylate]
7 | 302 M⁻¹ s⁻¹ | 603 M⁻¹ s⁻¹ | O=C(N[C@@H]1C[C@@H](C(=O)NC[C@@H]2CC(Br)=NO2)N(C(=O)OCc2cnc3ccccc3c2)C1)c1cccc(O)c1 [Compound 3, (2S,4R)-quinolin-3-ylmethyl 2-((((S)-3-bromo-4,5-dihydroisoxazol-5-yl)methyl)carbamoyl)-4-(3-hydroxybenzamido)pyrrolidine-1-carboxylate]
8 | 287 M⁻¹ s⁻¹ | 295 M⁻¹ s⁻¹ | O=C(NC[C@@H]1CC(Br)=NO1)[C@@H]1C[C@H](c2ccccc2)CN1C(=O)OCc1cnc2ccccc2c1 [Compound 9, (2S,4R)-quinolin-3-ylmethyl 2-((((S)-3-bromo-4,5-dihydroisoxazol-5-yl)methyl)carbamoyl)-4-phenylpyrrolidine-1-carboxylate]
9 | 695 M⁻¹ s⁻¹ | 422 M⁻¹ s⁻¹ | O=C(NC[C@@H]1CC(Br)=NO1)[C@@H]1C[C@@H](c2cccc(Cl)c2)CN1C(=O)OCc1cnc2ccccc2c1 [Compound 13, (2S,4S)-quinolin-3-ylmethyl 2-((((S)-3-bromo-4,5-dihydroisoxazol-5-yl)methyl)carbamoyl)-4-(3-chlorophenyl)pyrrolidine-1-carboxylate]
10 | 492 M⁻¹ s⁻¹ | 563 M⁻¹ s⁻¹ | O=C(NC[C@@H]1CC(Br)=NO1)[C@@H]1C[C@@H](c2ccccc2O)CN1C(=O)OCc1cnc2ccccc2c1 [Compound 10, (2S,4S)-quinolin-3-ylmethyl 2-((((S)-3-bromo-4,5-dihydroisoxazol-5-yl)methyl)carbamoyl)-4-(2-hydroxyphenyl)pyrrolidine-1-carboxylate]
11 | 645 M⁻¹ s⁻¹ | 870 M⁻¹ s⁻¹ | O=C(NC[C@@H]1CC(Br)=NO1)[C@@H]1C[C@@H](c2cccc(O)c2)CN1C(=O)OCc1cnc2ccccc2c1 [Compound 11, (2S,4S)-quinolin-3-ylmethyl 2-((((S)-3-bromo-4,5-dihydroisoxazol-5-yl)methyl)carbamoyl)-4-(3-hydroxyphenyl)pyrrolidine-1-carboxylate]
12 | 522 M⁻¹ s⁻¹ | 940 M⁻¹ s⁻¹ | O=C(N[C@@H]1C[C@@H](C(=O)NC[C@@H]2CC(Br)=NO2)N(C(=O)OCc2cnc3ccccc3c2)C1)c1ccc(O)cc1 [Compound 4, (2S,4R)-quinolin-3-ylmethyl 2-((((S)-3-bromo-4,5-dihydroisoxazol-5-yl)methyl)carbamoyl)-4-(4-hydroxybenzamido)pyrrolidine-1-carboxylate]
13 | 200 M⁻¹ s⁻¹ | 262 M⁻¹ s⁻¹ | O=C(N[C@@H]1C[C@@H](C(=O)NC[C@@H]2CC(Br)=NO2)N(C(=O)OCc2cnc3ccccc3c2)C1)c1cnccn1 [Compound 6, (2S,4R)-quinolin-3-ylmethyl 2-((((S)-3-bromo-4,5-dihydroisoxazol-5-yl)methyl)carbamoyl)-4-(pyrazine-2-carboxamido)pyrrolidine-1-carboxylate]
14 | 800 M⁻¹ s⁻¹ | 307 M⁻¹ s⁻¹ | O=C(NC[C@@H]1CC(Br)=NO1)[C@@H]1C[C@@H](c2c[nH]c3ccc(F)cc23)CN1C(=O)OCc1cnc2ccccc2c1 [Compound 15, (2S,4S)-quinolin-3-ylmethyl 2-((((S)-3-bromo-4,5-dihydroisoxazol-5-yl)methyl)carbamoyl)-4-(5-fluoro-1H-indol-3-yl)pyrrolidine-1-carboxylate]
